According to patent publication US20060058274A1, “Use of an aldosterone receptor antagonist to improve cognitive function” (Pharmacia Corporation, priority 2000, published 2006):

How the values were obtained:
[1] = tested on: Dahl salt-sensitive (DS) rat; conditions: low, non-antihypertensive doses, cited from earlier work; for memory function (passive avoidance): aged DS rats on low salt diet
male Wistar rats = conditions: cited from earlier work; for corticosterone-induced increase in behavioral reactivity: pretreatment, intracerebroventricular injection
[2] = Physical stability of solid state forms of eplerenone; format: physicochemical; conditions: temperatures below the enantiotropic transition temperature
[3] = tested on: patients with mild-to-moderate hypertension; test: Phase II dose-ranging study of eplerenone in mild-to-moderate hypertension; format: in vivo, human; conditions: for adjusted mean change in ABPM DBP from baseline to final visit / adjusted mean change in ABPM SBP from baseline to final visit: ambulatory blood pressure monitoring; for adjusted mean change in Cuff DBP from baseline to final visit / adjusted mean change in Cuff SBP from baseline to final visit: eight-week study
Description: The adjusted mean changes (in mmHg) in diastolic blood pressure (DBP) and systolic blood pressure (SBP) from baseline to final visit are shown in Table 1A.

[4] = tested on: patients with HF or hypertension; test: Phase II eplerenone HF and hypertension trials; format: in vivo, human; conditions: 25 to 50 mg QD
mice = conditions: cited from earlier work
[5] = biological target: T1, central mineralocorticoid receptors (Homo sapiens, UniProt P08235); conditions: cited from earlier work
T1 sequence (P08235 1-984): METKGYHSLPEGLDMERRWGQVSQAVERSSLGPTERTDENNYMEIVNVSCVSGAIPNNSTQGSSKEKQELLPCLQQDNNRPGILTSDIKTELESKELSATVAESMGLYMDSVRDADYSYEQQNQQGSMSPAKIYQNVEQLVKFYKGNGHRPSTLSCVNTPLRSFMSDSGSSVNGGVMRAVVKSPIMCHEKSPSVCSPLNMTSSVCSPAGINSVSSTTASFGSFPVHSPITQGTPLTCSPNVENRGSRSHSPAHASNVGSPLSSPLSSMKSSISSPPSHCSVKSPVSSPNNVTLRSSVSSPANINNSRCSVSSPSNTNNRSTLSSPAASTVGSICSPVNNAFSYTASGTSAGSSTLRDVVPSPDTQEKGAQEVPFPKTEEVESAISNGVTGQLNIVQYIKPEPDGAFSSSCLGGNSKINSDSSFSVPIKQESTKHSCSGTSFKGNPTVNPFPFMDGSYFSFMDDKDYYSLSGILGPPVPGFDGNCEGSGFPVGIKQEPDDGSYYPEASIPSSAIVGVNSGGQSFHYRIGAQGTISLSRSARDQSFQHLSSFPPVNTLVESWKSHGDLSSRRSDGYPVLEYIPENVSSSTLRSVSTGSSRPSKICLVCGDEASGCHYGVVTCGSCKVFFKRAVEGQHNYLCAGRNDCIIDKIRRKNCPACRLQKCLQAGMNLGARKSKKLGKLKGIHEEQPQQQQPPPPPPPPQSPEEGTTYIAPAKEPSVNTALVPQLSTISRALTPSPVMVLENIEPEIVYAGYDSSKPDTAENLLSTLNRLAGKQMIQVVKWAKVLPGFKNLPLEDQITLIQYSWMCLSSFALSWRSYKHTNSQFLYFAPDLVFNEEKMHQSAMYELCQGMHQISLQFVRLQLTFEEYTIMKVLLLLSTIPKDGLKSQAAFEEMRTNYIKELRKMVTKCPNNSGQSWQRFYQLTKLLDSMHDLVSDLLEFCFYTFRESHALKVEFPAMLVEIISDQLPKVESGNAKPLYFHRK

glucocorticoid receptors = biological target: T2, glucocorticoid receptors (Homo sapiens, UniProt P04150); conditions: cited from earlier work
T2 sequence (P04150 1-777): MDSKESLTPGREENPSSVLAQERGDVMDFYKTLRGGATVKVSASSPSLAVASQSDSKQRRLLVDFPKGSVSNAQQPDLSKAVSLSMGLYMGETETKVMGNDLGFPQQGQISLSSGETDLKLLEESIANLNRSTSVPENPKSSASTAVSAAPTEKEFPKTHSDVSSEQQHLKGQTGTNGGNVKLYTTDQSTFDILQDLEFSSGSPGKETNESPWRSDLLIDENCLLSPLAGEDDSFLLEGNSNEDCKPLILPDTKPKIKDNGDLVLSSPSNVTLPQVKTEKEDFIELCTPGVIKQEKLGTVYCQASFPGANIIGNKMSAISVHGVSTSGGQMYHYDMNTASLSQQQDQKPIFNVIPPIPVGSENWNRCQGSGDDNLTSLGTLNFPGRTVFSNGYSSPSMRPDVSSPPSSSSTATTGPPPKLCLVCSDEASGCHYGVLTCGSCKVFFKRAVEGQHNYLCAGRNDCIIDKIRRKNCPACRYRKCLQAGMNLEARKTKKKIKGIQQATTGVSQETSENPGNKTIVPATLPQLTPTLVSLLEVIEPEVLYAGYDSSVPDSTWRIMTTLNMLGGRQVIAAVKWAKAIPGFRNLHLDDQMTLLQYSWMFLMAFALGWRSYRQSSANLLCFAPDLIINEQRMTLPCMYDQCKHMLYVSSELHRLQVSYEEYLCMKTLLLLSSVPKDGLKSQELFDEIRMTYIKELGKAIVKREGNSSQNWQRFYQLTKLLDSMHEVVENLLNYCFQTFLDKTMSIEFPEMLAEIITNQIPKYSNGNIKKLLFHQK

[6] = Dissolution rate of unformulated solid state forms of eplerenone; format: physicochemical; conditions: temperatures below the enantiotropic transition temperature

Cc1ccnc2c1nc(C1CC1)n2Cc1ccc(-c2ccccc2C(=O)O)cc1 [Compound E4177]
memory function (passive avoidance) [1]: slightly improved | capillary densities in the CA1 regions [1]: not influenced | hippocampal CA1 cells [1]: restored slightly

CC#C[C@]1(O)CC[C@H]2[C@@H]3CCC4=CC(=O)CCC4=C3[C@@H](c3ccc(N(C)C)cc3)C[C@@]21C [RU38486]
corticosterone-induced increase in behavioral reactivity (male Wistar rats): not effective

COC(=O)[C@@H]1CC2=CC(=O)CC[C@]2(C)[C@@]23O[C@@H]2C[C@@]2(C)[C@@H](CC[C@@]24CCC(=O)O4)[C@H]13 [Form L, eplerenone]
physical stability relative to Form H [2]: greater physical stability

CCOC(=O)[C@H](CCc1ccccc1)N[C@H]1CCCN2CCC[C@@H](C(=O)O)N2C1=O [cilazapril]
memory function (passive avoidance) [1]: dose-dependently improved | capillary densities in the CA1 regions [1]: significant increases | hippocampal CA1 cells [1]: significant increases

CCC[C@@H]1CC2=CC(=O)CC[C@]2(C)[C@H]2CC[C@@]3(C)[C@@H](CC[C@@]3(O)CCC(=O)[O-])[C@H]12.[K+] [RU28318]
corticosterone-induced increase in behavioral reactivity (male Wistar rats): prevented

COC(=O)[C@@H]1CC2=CC(=O)CC[C@]2(C)[C@@]23O[C@@H]2C[C@@]2(C)[C@@H](CC[C@@]24CCC(=O)O4)[C@H]13 [Eplerenone, Pregn-4-ene-7,21-dicarboxylic acid, 9,11-epoxy-17-hydroxy-3-oxo-,γ-lactone, methyl ester, (7α,11α,17β)-]
adjusted mean change in ABPM DBP from baseline to final visit ([3]; 25 mg BID): −4.1 mmHg | adjusted mean change in ABPM SBP from baseline to final visit ([3]; 25 mg BID): −7.5 mmHg | adjusted mean change in Cuff DBP from baseline to final visit ([3]; 25 mg BID): −4.4 mmHg | adjusted mean change in Cuff SBP from baseline to final visit ([3]; 25 mg BID): −8.1 mmHg | adjusted mean change in ABPM DBP from baseline to final visit ([3]; 50 mg BID): −6.6 mmHg | adjusted mean change in ABPM SBP from baseline to final visit ([3]; 50 mg BID): −11.6 mmHg | adjusted mean change in Cuff DBP from baseline to final visit ([3]; 50 mg BID): −7.8 mmHg | adjusted mean change in Cuff SBP from baseline to final visit ([3]; 50 mg BID): −11.7 mmHg | adjusted mean change in Cuff DBP from baseline to final visit ([3]; 50 mg QD): −4.5 mmHg | adjusted mean change in Cuff DBP from baseline to final visit ([3]; 100 mg QD): −4.4 mmHg | adjusted mean change in Cuff SBP from baseline to final visit ([3]; 100 mg QD): −7.9 mmHg | frequency of transient hyperkalemia (i.e., $5.4 mmol/L) ([3]; 200 mg BID and 400 mg QD treatment groups): increased frequency | adjusted mean change in ABPM DBP from baseline to final visit ([3]; 200 mg BID): −9.0 mmHg | adjusted mean change in ABPM SBP from baseline to final visit ([3]; 200 mg BID): −16.1 mmHg | adjusted mean change in Cuff DBP from baseline to final visit ([3]; 200 mg BID): −8.9 mmHg | adjusted mean change in Cuff SBP from baseline to final visit ([3]; 200 mg BID): −14.8 mmHg | adjusted mean change in Cuff DBP from baseline to final visit ([3]; 400 mg QD): −8.7 mmHg | adjusted mean change in Cuff SBP from baseline to final visit ([3]; 400 mg QD): −15.0 mmHg | plasma renin activity ([3]; increasing doses, FIG. 1-1): increased levels | serum aldosterone ([3]; increasing doses, FIG. 1-1): increased levels | systolic blood pressure ([3]; increasing doses, FIG. 1-2): decreased | diastolic blood pressure ([3]; increasing doses, FIG. 1-3): decreased | tolerability ([3]; total daily doses 50, 100 or 400 mg): well tolerated | diuretic or hemodynamic effect [4]: neither diuretic nor hemodynamic | plasma BNP levels [4]: lowered | plasma renin and aldosterone levels [4]: increased | effect on the ACE-inhibited mice (mice; mouse, in vivo): had no effect | retention-sparing effects of piracetam (mice; mouse, in vivo): prevented

C[C@]12C[C@H](O)[C@H]3[C@@H](CCC4=CC(=O)CC[C@@]43C)[C@@H]1CC[C@@H]2C(=O)CO [Corticosterone]
affinity for central mineralocorticoid receptors [5]: high affinity | affinity for glucocorticoid receptors relative to mineralocorticoid receptors (glucocorticoid receptors): tenfold lower affinity | adrenalectomy-increased behavioral reactivity towards the object (male Wistar rats; 50 micrograms/kg s.c.): blocked

COC(=O)[C@@H]1CC2=CC(=O)CC[C@]2(C)[C@@]23O[C@@H]2C[C@@]2(C)[C@@H](CC[C@@]24CCC(=O)O4)[C@H]13 [Form H, eplerenone]
dissolution rate, higher than unformulated Form L [6]: approximately 30%

NC(=O)CN1CCCC1=O [piracetam]
retention performance (mice; pretreatment, amnesia induced by electro-shock): significantly improved
